Experimental findings from ChEMBL document CHEMBL1201862, “PubChem BioAssay data set” (2004) are described below.

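How tested: cells in 96-well plates exposed to compound for 48 hours at five concentrations. Here, GI50 denotes the concentration required for 50% inhibition of growth.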 Activity calls are given as the source filed them. Cut-off read from the data, not from the text of the source: active = GI50 up to about 1.1 µM and inactive = higher.

Test systems include KM12; OVCAR-3; SNB-19; CCRF-CEM; Malme-3M; MDA-MB-231; IGROV-1; 786-0; SF-295; MCF7; SK-MEL-2; UACC-62; SK-MEL-28; HCT-116; DU-145; M14; Hs-578T; HT-29; SF-268; SF-539.
Assay in all cases: growth of human tumour cells (NCI), 48 h

For the compound `CCCNC(=O)c1cc(NC(=O)c2cc(NC(=O)CCS(=O)(=O)OC)cn2C)cn1C`, the GI50 in the test on KM12 is 21.9 µM (inactive); in the test with OVCAR-3, 10.4 µM (inactive); with SNB-19, 2.21 µM (inactive); in the test on CCRF-CEM it was 0.902 µM (active); in the test with Malme-3M, 8.41 µM (inactive); in the test on MDA-MB-231, 33.8 µM (inactive). Moreover, the GI50 in the test on IGROV-1 was 15 µM (inactive); in the test with 786-0, 23.7 µM (inactive); in the test with SF-295 it was > 69.8 µM (inactive); with MCF7 it was 20.5 µM (inactive); in the test with SK-MEL-2, 18.3 µM (inactive); in the test with UACC-62, 19.8 µM (inactive). Further, the GI50 in the test on SK-MEL-28 was 33.3 µM (inactive); in the test on HCT-116, 12.8 µM (inactive); in the test on DU-145 it was 24.2 µM (inactive); with M14, 28.6 µM (inactive); in the test with Hs-578T it was 32.7 µM (inactive); in the test on HT-29, 22 µM (inactive).
On to `CC(C)(C)OC(=O)C1=C(C(=O)OC(C)(C)C)SC2(S1)C(C(=O)OC(C)(C)C)=C(C(=O)OC(C)(C)C)Sc1c2ssc1=O`, for which the GI50 in the test on KM12 was > 100 µM (inactive); in the test with OVCAR-3 it was 48.2 µM (inactive); in the test with SNB-19, > 100 µM (inactive); with CCRF-CEM, 18.1 µM (inactive); in the test with Malme-3M, > 100 µM (inactive); in the test with MDA-MB-231, 83.8 µM (inactive). The GI50 is 59.4 µM (inactive) with IGROV-1; > 100 µM (inactive) in the test with SF-295; 49.2 µM (inactive) with MCF7; 72.9 µM (inactive) in the test on SK-MEL-2; 31.3 µM (inactive) in the test with UACC-62; 73.1 µM (inactive) with SK-MEL-28. Moreover, the GI50 in the test with HCT-116 is 47.3 µM (inactive); with DU-145 it was 31 µM (inactive); in the test on M14 it was 95.7 µM (inactive); with SF-268, 60.1 µM (inactive); in the test on Hs-578T, 75.5 µM (inactive); in the test on HT-29, 86.5 µM (inactive).
For the compound `COc1ccc(/C=C2/SC(c3ccc(Cl)cc3)N(NC(=O)CCCCCCCCC(=O)NN3C(=O)/C(=C\c4ccc(OC)c(OC)c4)SC3c3ccc(Cl)cc3)C2=O)cc1OC` (stereo not drawn), the GI50 with KM12 is 55.3 µM (inactive); with OVCAR-3, 60 µM (inactive); in the test on SNB-19, 50.2 µM (inactive); with MDA-MB-231, > 100 µM (inactive); in the test with IGROV-1 it was 12.9 µM (inactive); with 786-0 it was 24.4 µM (inactive). Further, the GI50 is 21.4 µM (inactive) in the test on SF-295; > 100 µM (inactive) in the test with MCF7; 78 µM (inactive) with SK-MEL-2; 29.3 µM (inactive) in the test with UACC-62; 83 µM (inactive) in the test with SK-MEL-28; 30.6 µM (inactive) with HCT-116. Also, the GI50 in the test on SF-539 was 29.2 µM (inactive); with DU-145 it was > 100 µM (inactive); in the test on M14, 44.1 µM (inactive); with SF-268 it was 50 µM (inactive); in the test with HT-29, > 100 µM (inactive).
Consider `Cc1nnc(N)nc1C/C=C/C(Sc1ccc(Cl)cc1)c1ccccc1` (stereo not drawn), for which the GI50 is 3.56 µM (inactive) in the test with KM12; 3.05 µM (inactive) with SNB-19; 0.235 µM (active) in the test with CCRF-CEM; 3.06 µM (inactive) in the test on Malme-3M; 6.76 µM (inactive) in the test with MDA-MB-231; 1.82 µM (inactive) in the test on IGROV-1. For the same compound, the GI50 in the test with 786-0 is 3.27 µM (inactive); with SF-295, 1.91 µM (inactive); with MCF7 it was 3.95 µM (inactive); in the test with SK-MEL-2, 5.66 µM (inactive); with UACC-62, 2.74 µM (inactive); with SK-MEL-28, 6.78 µM (inactive). Further, the GI50 is 3.59 µM (inactive) in the test with HCT-116; 8.02 µM (inactive) with DU-145; 4.73 µM (inactive) in the test on M14; 2.4 µM (inactive) in the test on SF-268; 3.27 µM (inactive) in the test on Hs-578T; 7.01 µM (inactive) with HT-29.
As to `CC(=O)O[C@H]1[C@@H](N2CCN(C)CC2)C[C@H]2[C@@H]3CC=C4C[C@@H](N5CCCC5)CC[C@]4(C)[C@H]3CC[C@@]21C`, the GI50 in the test on KM12 is 22.4 µM (inactive); in the test with OVCAR-3, 88.7 µM (inactive); in the test with SNB-19, > 100 µM (inactive); in the test with CCRF-CEM, 30.4 µM (inactive); with Malme-3M, 26.1 µM (inactive); in the test on MDA-MB-231, 63 µM (inactive). The GI50 in the test on IGROV-1 is 68.4 µM (inactive); with 786-0, 25.8 µM (inactive); with SF-295, 21.7 µM (inactive); in the test with MCF7 it was > 100 µM (inactive); in the test with SK-MEL-2 it was > 100 µM (inactive); in the test on UACC-62, 59.4 µM (inactive). For the same compound, the GI50 with SK-MEL-28 is 28.1 µM (inactive); in the test on HCT-116, 16.9 µM (inactive); with SF-539 it was 15 µM (inactive); in the test on M14, 17.8 µM (inactive); in the test on SF-268, 47.6 µM (inactive); in the test on Hs-578T it was > 100 µM (inactive). In addition, the GI50 in the test with HT-29 is 4.14 µM (inactive).
Turning to `COC(=O)C(C(=O)C(=O)Nc1c(C)cccc1C(C)(C)C)c1nc2ccc(Cl)cc2nc1O` (stereo not drawn), the GI50 in the test on KM12 was > 100 µM (inactive); in the test on OVCAR-3 it was > 100 µM (inactive); in the test on SNB-19 it was 86.5 µM (inactive); in the test on CCRF-CEM, > 100 µM (inactive); with Malme-3M, > 100 µM (inactive); in the test on MDA-MB-231, > 100 µM (inactive). Also, the GI50 in the test with IGROV-1 was 25.8 µM (inactive); with 786-0 it was > 100 µM (inactive); in the test with SF-295, > 100 µM (inactive); in the test with MCF7 it was > 100 µM (inactive); in the test on SK-MEL-2 it was > 100 µM (inactive); in the test on UACC-62 it was > 100 µM (inactive). Further, the GI50 in the test with SK-MEL-28, in the test with HCT-116, with SF-539, in the test with M14, in the test with SF-268 and with Hs-578T was > 100 µM (inactive) each time. For the same compound, in the test with HT-29, the GI50 is > 100 µM (inactive).
Regarding `CC(C)CNC(=O)CCc1cccc2c1oc1c(CCN)cccc12`, the GI50 in the test on KM12 was 11.9 µM (inactive); with OVCAR-3 it was 5.65 µM (inactive); with SNB-19, 4.35 µM (inactive); in the test on CCRF-CEM, 3.9 µM (inactive); in the test on Malme-3M, 16.6 µM (inactive); in the test with MDA-MB-231, 15 µM (inactive). Besides, the GI50 is 10.2 µM (inactive) with IGROV-1; 12.4 µM (inactive) in the test with 786-0; 16.3 µM (inactive) in the test with SF-295; 20.6 µM (inactive) in the test with MCF7; 18.5 µM (inactive) in the test with SK-MEL-2; 17.1 µM (inactive) with UACC-62. The GI50 in the test on SK-MEL-28 was 11.5 µM (inactive); in the test with HCT-116, 9.93 µM (inactive); in the test with SF-539, 16 µM (inactive); in the test with DU-145, 17.9 µM (inactive); with M14 it was 15.6 µM (inactive); in the test on SF-268, 15 µM (inactive). In the test on HT-29, the GI50 was 9.31 µM (inactive).
Turning to `Cn1ccc(C(=O)NCCOCCNC(=O)c2ccn(C)c(=O)c2O)c(O)c1=O`, the GI50 with KM12 was 18.2 µM (inactive); with SNB-19, > 100 µM (inactive); with Malme-3M it was > 100 µM (inactive); in the test with MDA-MB-231, > 100 µM (inactive); in the test on 786-0, > 100 µM (inactive); in the test on SK-MEL-2, > 100 µM (inactive). Further, the GI50 with UACC-62, in the test with SK-MEL-28, in the test with HCT-116, in the test on DU-145, with SF-268 and in the test with Hs-578T was > 100 µM (inactive) throughout. Further, in the test with HT-29, the GI50 is > 100 µM (inactive).
As to `CN1CCN(CCCN2c3ccccc3Sc3ccc(C(F)(F)F)cc32)CC1`, the GI50 in the test with KM12 is 2.94 µM (inactive); in the test with SNB-19 it was 11.4 µM (inactive); in the test with Malme-3M, 1.45 µM (inactive); in the test with 786-0 it was 4.14 µM (inactive); in the test on SF-295 it was 5.79 µM (inactive); in the test on MCF7, 4.61 µM (inactive). The GI50 with SK-MEL-2 is 4.18 µM (inactive); in the test on UACC-62 it was 2.06 µM (inactive); in the test on SK-MEL-28, 1.66 µM (inactive); with HCT-116, 4.25 µM (inactive); in the test on SF-539, 4.65 µM (inactive); in the test on DU-145, 10.5 µM (inactive). In addition, the GI50 is 1.72 µM (inactive) in the test with M14, 7.78 µM (inactive) with SF-268, 3.4 µM (inactive) in the test with Hs-578T and 2.35 µM (inactive) with HT-29.
In the case of `CO/N=C(\C(=O)O/C(=N/C1CCCCC1)NC1CCCCC1)c1csc(NC(c2ccccc2)(c2ccccc2)c2ccccc2)n1`, the GI50 with KM12, in the test with OVCAR-3, with SNB-19, in the test with CCRF-CEM, in the test with Malme-3M and in the test with IGROV-1 was > 10 µM (inactive) throughout. In addition, the GI50 in the test with 786-0, in the test with SF-295, with MCF7, with SK-MEL-2, in the test on SK-MEL-28 and in the test with HCT-116 was > 10 µM (inactive) throughout. Besides, the GI50 in the test on SF-539, with DU-145, in the test on M14, in the test on SF-268, in the test on Hs-578T and in the test on HT-29 was > 10 µM (inactive) each time.
Turning to `CC[C@@H](C)[C@H](NC(=O)[C@H](Cc1ccccc1)NCC(F)(F)F)C(=O)OC(C)(C)C`, the GI50 with KM12 is > 100 µM (inactive); in the test with OVCAR-3, 89.9 µM (inactive); with SNB-19, > 100 µM (inactive); with CCRF-CEM, 74.8 µM (inactive); with Malme-3M, > 100 µM (inactive); in the test with MDA-MB-231, > 100 µM (inactive). For the same compound, the GI50 with IGROV-1 is > 100 µM (inactive); in the test with 786-0, > 100 µM (inactive); in the test with SF-295, > 100 µM (inactive); with MCF7, > 100 µM (inactive); in the test on UACC-62, 47.8 µM (inactive); in the test with SK-MEL-28, > 100 µM (inactive). Besides, the GI50 in the test with HCT-116, in the test on DU-145, in the test with M14, in the test on SF-268, with Hs-578T and in the test with HT-29 was > 100 µM (inactive) each time.
